US20240041042A1, “1-(PYRIDYL)-5-AZINYLPYRAZOLE DERIVATIVES, AND THEIR USE FOR CONTROL OF UNDESIRED PLANT GROWTH” (Bayer Aktiengesellschaft, priority 2020, published 2024)
Read-outs that look alike come from different tables or passages of the source.

What was measured:
Format in all cases: in vivo
Zea mays (ZEAMX) [1] = conditions: for Post-emergence action against ZEAMX in %: crop plant compatibility, effect vs untreated controls; for Post-emergence action against ZEAMX in % (crop plant compatibility): 20 g/ha, effect in comparison to untreated controls
How it was run: (§1)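 Effects were read visually as % versus untreated controls (0% = no effect, 100% = death) about 3 weeks post-treatment. Application was a post-emergence spray at the one-leaf stage of WP/EC formulations with 0.5% additive at 600 l/ha. Different dosages are denoted a, b and c.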

Oryza sativa (ORYSA) [2] = conditions: crop plant compatibility
How it was run: as §1

Viola tricolor (VIOTR) [3] = test: Post-emergence herbicidal action against VIOTR
How it was run: (§2)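 Rates were 320 g/ha or below, applied as aqueous WP/EC spray with 0.5% additive (600 l/ha) onto one-leaf-stage plants. About 3 weeks later in the greenhouse, damage was scored visually against untreated plants on a 0–100% scale, where 100% means plants died.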

[4] = system: Triticum aestivum (TRZAS); conditions: pre-emergence, crop plant compatibility, in comparison to untreated controls
How it was run: (§3)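 Scoring: visual, % of untreated control, about 3 weeks after a pre-emergence application to the soil surface. Application used WP or EC formulations diluted in water with 0.5% additive at 600 l/ha; dosage levels are marked by suffixes a, b and c.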

Zea mays (ZEAMX) [5] = conditions: pre-emergence, crop plant compatibility, in comparison to untreated controls
How it was run: as §3

Glycine max (GLXMA) = conditions: pre-emergence, crop plant compatibility, in comparison to untreated controls
How it was run: as §3

Oryza sativa (ORYSA) [6] = conditions: pre-emergence, crop plant compatibility, in comparison to untreated controls
How it was run: as §3

[7] = system: Amaranthus retroflexus (AMARE); test: Post-emergence herbicidal action against AMARE
How it was run: as §2

Setaria viridis (SETVI) [8] = test: Pre-emergence herbicidal action against SETVI
How it was run: (§4)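 Greenhouse pot trial: seeds sown, soil-covered, sprayed before emergence with compound in water (0.5% additive; 600 l/ha; ≤320 g/ha). Scoring visual, ~3 weeks, 0–100% scale vs untreated.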

Lolium rigidum (LOLRI) [9] = test: Pre-emergence herbicidal action against LOLRI; conditions: dosage 320 g/ha
How it was run: as §4

[10] = system: Matricaria inodora (MATIN); test: Post-emergence herbicidal action against MATIN
How it was run: as §2

Viola tricolor (VIOTR) [11] = test: Pre-emergence herbicidal action against VIOTR; conditions: 320 g/ha, Viola tricolor
How it was run: as §4

Setaria viridis (SETVI) [12] = test: Post-emergence herbicidal action against SETVI
How it was run: as §2

[13] = system: Amaranthus retroflexus (AMARE); test: Pre-emergence herbicidal action against AMARE; conditions: visual scoring after about 3 weeks vs untreated controls
How it was run: as §4

[14] = system: Pharbitis purpurea (PHBPU); test: Post-emergence herbicidal action against PHBPU
How it was run: as §2

[15] = system: Alopecurus myosuroides (ALOMY); test: Post-emergence herbicidal action against ALOMY; conditions: visual rating about 3 weeks after treatment vs untreated controls (100% = plants have died, 0% = like control plants)
How it was run: as §2

[16] = system: Alopecurus myosuroides (ALOMY); test: Pre-emergence herbicidal action against ALOMY; conditions: 320 g/ha; scored visually after about 3 weeks; 100% = plants have died
How it was run: as §4

Lolium rigidum (LOLRI) [17] = test: Post-emergence herbicidal action against LOLRI; conditions: dosage 320 g/ha
How it was run: as §2

[18] = system: Echinochloa crus-galli (ECHCG); test: Post-emergence herbicidal action against ECHCG
How it was run: as §2

[19] = system: Verconica persica (VERPE); test: Post-emergence herbicidal action against VERPE; conditions: 320 g/ha, VERPE
How it was run: as §2

[20] = system: Abutilon theophrasti (ABUTH); test: Post-emergence herbicidal action against ABUTH; conditions: visual rating about 3 weeks after treatment vs untreated controls (100% = plants have died, 0% = like control plants)
How it was run: as §2

[21] = system: Echinochloa crus-galli (ECHCG); test: Pre-emergence herbicidal action against ECHCG; conditions: dosage 320 g/ha
How it was run: as §4

[22] = system: Matricaria inodora (MATIN); test: Pre-emergence herbicidal action against MATIN
How it was run: as §4

[23] = system: Polygonum convolvulus (POLCO); test: Pre-emergence herbicidal action against POLCO; conditions: dosage 320 g/ha
How it was run: as §4

[24] = system: Polygonum convolvulus (POLCO); test: Post-emergence herbicidal action against POLCO; conditions: dosage 320 g/ha
How it was run: as §2

[25] = system: Pharbitis purpurea (PHBPU); test: Pre-emergence herbicidal action against PHBPU
How it was run: as §4

Avena fatua (AVEFA) = test: Post-emergence herbicidal action against AVEFA; conditions: visual rating about 3 weeks after treatment
How it was run: as §2

[26] = system: Triticum aestivum (TRZAS); conditions: crop plant compatibility, effect vs untreated controls
How it was run: as §1

[27] = 80 g/ha, effect in comparison to untreated controls
[28] = 80 g/ha, visual rating about 3 weeks after treatment vs untreated controls (100% = plants have died, 0% = like control plants)
[29] = 320 g/ha, visual rating about 3 weeks after treatment
[30] = 20 g/ha, effect vs untreated controls

COC(=O)CCOC(=O)COc1nn(-c2ccnc(F)c2)c(-c2ccc(F)nc2)c1Br [III-27]
90%: Pre-emergence action against SETVI in % (Setaria viridis (SETVI) [8]; dosage 320 g/ha)
80%: Post-emergence action against VIOTR in % (Viola tricolor (VIOTR) [3]; 320 g/ha) | Post-emergence action against AMARE in % [7, 28] | Post-emergence action against AMARE in % [7, 29]
10%: Post-emergence action against ZEAMX in % (Zea mays (ZEAMX) [1]; 80 g/ha) | Post-emergence action against ZEAMX in % (Zea mays (ZEAMX) [1]; 320 g/ha) | Pre-emergence action against ZEAMX in % (Zea mays (ZEAMX) [5]; 80 g/ha)
0%: Post-emergence action against ORYSA in % (Oryza sativa (ORYSA) [2]; [27]) | Post-emergence action against ORYSA in % (Oryza sativa (ORYSA) [2]; 320 g/ha, effect in comparison to untreated controls) | Pre-emergence action against GLXMA in % (Glycine max (GLXMA); 80 g/ha) | Pre-emergence action against ORYSA in % (Oryza sativa (ORYSA) [6]; 80 g/ha)
20%: Pre-emergence action against TRZAS in % ([4]; 80 g/ha) | Pre-emergence action against ZEAMX in % (Zea mays (ZEAMX) [5]; 320 g/ha) | Pre-emergence action against ORYSA in % (Oryza sativa (ORYSA) [6]; 320 g/ha)

COC(=O)CSc1nn(-c2ccccn2)c(-c2cncc(F)c2)c1Br [Example I-151]
10%: Pre-emergence action against TRZAS in % ([4]; 80 g/ha) | Pre-emergence action against GLXMA in % (Glycine max (GLXMA); 80 g/ha)
80%: Post-emergence action against MATIN in % ([10]; dosage 80 g/ha) | Post-emergence action against ALOMY in % ([15]; 80 g/ha) | Post-emergence action against ALOMY in % ([15]; 320 g/ha) | Post-emergence action against ABUTH in % ([20]; 80 g/ha) | Post-emergence action against ABUTH in % ([20]; 320 g/ha) | Post-emergence action against POLCO in % [24] | Post-emergence action against VIOTR in % (Viola tricolor (VIOTR) [3]; 80 g/ha) | Pre-emergence action against PHBPU in % ([25]; dosage 80 g/ha) | Pre-emergence action against PHBPU in % ([25]; dosage 320 g/ha)
100%: Pre-emergence action against VIOTR in % (Viola tricolor (VIOTR) [11]) | Pre-emergence action against AMARE in % ([13]; 320 g/ha) | Pre-emergence action against ALOMY [16] | Post-emergence action against AMARE in % [7, 29] | Pre-emergence action against SETVI in % (Setaria viridis (SETVI) [8]; dosage 320 g/ha)
90%: Pre-emergence action against LOLRI in % (Lolium rigidum (LOLRI) [9]) | Post-emergence action against MATIN in % ([10]; dosage 320 g/ha) | Post-emergence action against SETVI in % (Setaria viridis (SETVI) [12]; dosage 80 g/ha) | Post-emergence action against SETVI in % (Setaria viridis (SETVI) [12]; dosage 320 g/ha) | Pre-emergence action against AMARE in % ([13]; 80 g/ha) | Post-emergence action against PHBPU in % ([14]; dosage 80 g/ha) | Post-emergence action against PHBPU in % ([14]; dosage 320 g/ha) | Post-emergence action against LOLRI in % (Lolium rigidum (LOLRI) [17]) | Post-emergence action against ECHCG in % ([18]; dosage 80 g/ha) | Post-emergence action against ECHCG in % ([18]; dosage 320 g/ha) | Post-emergence action against VERPE in % [19] | Pre-emergence action against ECHCG in % [21] | Pre-emergence action against MATIN in % ([22]; dosage 80 g/ha) | Pre-emergence action against MATIN in % ([22]; dosage 320 g/ha) | Pre-emergence action against POLCO in % [23] | Post-emergence action against VIOTR in % (Viola tricolor (VIOTR) [3]; 320 g/ha) | Post-emergence action against AMARE in % [7, 28] | Pre-emergence action against SETVI in % (Setaria viridis (SETVI) [8]; dosage 80 g/ha) | Post-emergence action against AVEFA in % (Avena fatua (AVEFA); 80 g/ha) | Post-emergence action against AVEFA in % (Avena fatua (AVEFA); 320 g/ha)
0%: Post-emergence action against ORYSA in % (Oryza sativa (ORYSA) [2]; [27])
20%: Pre-emergence action against GLXMA in % (Glycine max (GLXMA); 320 g/ha)

COC(=O)[C@H](C)NC(=O)COc1nn(-c2ccnc(Cl)c2)c(-c2ccc(F)nc2)c1Br [III-18]
0%: Post-emergence action against TRZAS in % ([26]; 20 g/ha) | Post-emergence action against TRZAS in % ([26]; 80 g/ha) | Post-emergence action against ZEAMX in % (crop plant compatibility) (Zea mays (ZEAMX) [1]) | Post-emergence action against ZEAMX in % (Zea mays (ZEAMX) [1]; 80 g/ha) | Post-emergence action against ORYSA in % (Oryza sativa (ORYSA) [2]; [30]) | Post-emergence action against ORYSA in % (Oryza sativa (ORYSA) [2]; [27]) | Pre-emergence action against TRZAS in % ([4]; 80 g/ha) | Pre-emergence action against GLXMA in % (Glycine max (GLXMA); 80 g/ha) | Pre-emergence action against ORYSA in % (Oryza sativa (ORYSA) [6]; 80 g/ha) | Pre-emergence action against ORYSA in % (Oryza sativa (ORYSA) [6]; 320 g/ha)
20%: Pre-emergence action against TRZAS in % ([4]; 320 g/ha) | Pre-emergence action against ZEAMX in % (Zea mays (ZEAMX) [5]; 80 g/ha) | Pre-emergence action against ZEAMX in % (Zea mays (ZEAMX) [5]; 320 g/ha)
80%: Post-emergence action against AMARE in % [7, 28]

COC(=O)CCOC(=O)COc1nn(-c2ccnc(Cl)c2)c(-c2ccc(F)nc2)c1Br [III-19]
0%: Post-emergence action against ZEAMX in % (crop plant compatibility) (Zea mays (ZEAMX) [1]) | Post-emergence action against ORYSA in % (Oryza sativa (ORYSA) [2]; [30]) | Post-emergence action against ORYSA in % (Oryza sativa (ORYSA) [2]; [27]) | Pre-emergence action against GLXMA in % (Glycine max (GLXMA); 80 g/ha) | Pre-emergence action against ORYSA in % (Oryza sativa (ORYSA) [6]; 80 g/ha)
20%: Post-emergence action against TRZAS in % ([26]; 20 g/ha) | Pre-emergence action against TRZAS in % ([4]; 80 g/ha) | Pre-emergence action against ORYSA in % (Oryza sativa (ORYSA) [6]; 320 g/ha)
80%: Pre-emergence action against AMARE in % ([13]; 320 g/ha) | Post-emergence action against PHBPU in % ([14]; dosage 80 g/ha) | Post-emergence action against AMARE in % [7, 28]
